IZ, MIC and inhibition data for two compounds are collected here from ChEMBL document CHEMBL1177886, “Synthesis and biological evaluation of a novel series of 2,2-bisaminomethylated aurone analogues as anti-inflammatory and antimicrobial agents” (Eur J Med Chem, 2010).

The test system of one test is Bacillus subtilis. Particulars: NCIM 2546.
The next test concerns Escherichia coli. The settings on record: NCIM 2065.
Another test deals with Staphylococcus aureus. Particulars: NCIM 2120.
Another test relates to Klebsiella pneumoniae. The settings on record: NCIM 5082.
For the next test, the system named is Proteus vulgaris. Particulars: NCIM 2813.
Test [1] has as its system THP-1. In words: Antiinflammatory activity in human THP1 cells assessed as inhibition of LPS-induced TNFalpha production at 1 uM treated 30 mins before LPS challenge measured after 24 hrs by ELISA relative to control. The class given is functional. A general note: ELISA stands for enzyme-linked immunosorbent assay.
Test [2] concerns THP-1. As to the kind of experiment: Antiinflammatory activity in human THP1 cells assessed as inhibition of LPS-induced IL-6 production at 1 uM treated 30 mins before LPS challenge measured after 24 hrs by ELISA relative to control. It counts as functional.

Description for Bacillus subtilis: Antibacterial activity against Bacillus subtilis NCIM 2546 after 24 hrs by disc diffusion method
Description for Escherichia coli: Antibacterial activity against Escherichia coli NCIM 2065 after 24 hrs by disc diffusion method
Description for Klebsiella pneumoniae: Antibacterial activity against Klebsiella pneumoniae NCIM 5082 after 24 hrs by disc diffusion method
Description for Proteus vulgaris: Antibacterial activity against Proteus vulgaris NCIM 2813 after 24 hrs by disc diffusion method
Description for Staphylococcus aureus: Antibacterial activity against Staphylococcus aureus NCIM 2120 after 24 hrs by disc diffusion method

On to GENTAMICIN, for which the figures for the IZ in the test with Bacillus subtilis, in the test with Klebsiella pneumoniae and with Proteus vulgaris were 21 mm, 24 mm and 24 mm, respectively. Also, the MIC in the test with Bacillus subtilis, with Escherichia coli, in the test on Staphylococcus aureus, against Klebsiella pneumoniae and with Proteus vulgaris was 25 µg/mL each time.

As for `C[C@@H]1C[C@H]2[C@@H]3CCC4=CC(=O)C=C[C@]4(C)[C@@]3(F)[C@@H](O)C[C@]2(C)[C@@]1(O)C(=O)CO` [DEXAMETHASONE], the inhibition at 1 µM is 69% with THP-1 [1] and 90% in the test on THP-1 [2].

Broadly, the MIC is the lowest concentration found to suppress growth. As usually defined, the inhibition is the change of the read-out against control, counted positive when it falls.
